Measured values taken from patent publication US20090186835A1, “TREATMENT AND PROPHYLAXIS OF CANCER” (priority 2008, published 2009).
Read-outs that look alike come from different tables or passages of the source.

How the values were obtained:
[1] = test system: human pancreatic carcinoma cells (HPAC); experiment: CytoTox 96 LDH release cytotoxicity assay on HPAC cells
Experimental: (§1) The pancreatic cancer cell line, human pancreatic carcinoma cells (HPAC), was obtained from American Tissue and Cell Culture and cultured in complete media according to American Tissue and Cell Culture guidelines in T-75-cm^2 flasks in a 37° C. incubator with 5% CO2. HPAC cells were grown in Dulbecco's modified Eagle's medium with Ham F-12, 5% fetal bovine serum, 5% penicillin/streptomycin, 0.002 mg/mL insulin, 0.005 mg/mL transferrin, 40 ng/mL hydrocortisone, and 10 ng/mL epidermal growth factor.
(§2) 1×10^4 HPAC cells were aliquoted into each well of a 96-well plate and served as target cells. They were plated in phenol red dye-free RPMI 1640 (HyClone, Logan, Utah) complete medium (1 mM L-glutamine, 100 U/mL penicillin, 100 μg/mL streptomycin, 5% heat-inactivated fetal bovine serum; Gibco-BRL, Grand Island, N.Y.) and incubated with either natural mixture or sophorolipid derivative in increasing concentrations (0, 50, 100, 150, 200 mg; 100 μL final volume) at 37° C. with 5% CO2 overnight.
(§3) Assays were carried out using a CytoTox 96 Non-Radioactive Cytotoxicity Assay (Promega, Woodshole, Mass.), in accordance with manufacturer's directions. This assay measures lactate dehydrogenase (LDH) release by target cells, after conversion of a tetrazolium salt into a formazan red product. Cytotoxicity as measured by LDH release is considered an effective measure of determining cellular necrosis. Sophorolipid mixtures or derivatives (0, 50, 100, 150, 200 mg) were added to 96-well tissue culture plates (Fisher Scientific, Springfield, N.J.) containing HPAC cells (100 μL final volume) and incubated at 37° C., 5% CO2, for 20 h. To establish maximum lysis, lysing solution (9% v/v Triton-X 100; 10 μL) was added to representative culture wells containing HPAC cells. After incubation, supernatant (50 μL) was transferred to a fresh 96-well plate. Chromogenic substrate solution (50 μL) was added to each well while the plates were incubated in the dark at RT for 30 min, after which stop solution (1M NaAc; 50 μL) was added to each well to stop the reaction.
(§4) Cytotoxicity as measured by LDH release was determined by spectrophotometry at 450 nm (Bio-Tek Instruments Inc., Winooski, Vt.). […] Data shown represent the mean of at least three experiments±SE and are expressed as percentage cytotoxicity. Background controls were corrected for and consisted of target cell spontaneous (HPACs in media) and target cell maximum (HPACs in media with 10 μL lysis solution). Target cell maximum was corrected for by a volume control (media with 10 μL lysis solution). Each experiment was corrected for by a sophorolipid control (sophorolipid in media). These controls were incubated on the same 96-well plate as experimental assays. Percent (%) cytotoxicity was calculated according to the general equation below:
(§5) Values for results were expressed as means±SE obtained from multiple determinations in three or more separate experiments. P values computed were two-tailed, and P<0.05 was considered statistically significant (Student's t-test, analysis of variance with Tukey post-hoc correction; SPSS version 10.0, Chicago, Ill.).

[2] = test system: Human pancreatic carcinoma (HPAC) cells; experiment: Apoptosis (annexin) in HPAC cells; assay type: cell-based; conditions: 0.5-2.0 mg/ml, 24 hours
Experimental: The sophorolipid mixtures of the present invention have anti cancer properties, which were confirmed by experiment and observations. […] Controls consisted of cells treated with media or vehicle alone and sophorolipids treatment of peripheral blood mononuclear cells (PBMC). AS mediated toxicity was inversely proportional with dose (LSD—40.3% at 0.5 mg/ml, 3.4% at 2.0 mg/ml, AS 49% at 0.5 mg/ml, 0% at 2.0 mg/ml).

[3] = test system: human pancreatic carcinoma cells (HPAC)
Experimental: as §1, §2, §3, §4, §5

Compound	percent cytotoxicity (LDH release) ([1]; HPAC cells cultured with 100 μg of sophorolipid natural mixture or derivative, FIG. 2)	percent cytotoxicity (LDH release) ([1]; HPAC cells, 0.5 mg/mL)	percent cytotoxicity (LDH release) ([1]; HPAC cells, 2.0 mg/mL)	dose dependence of the cytotoxic response ([1]; HPAC cells, 0.5-2.0 mg/ml, in words)	apoptosis (annexin) [2]	dose dependence of the cytotoxic response [3]
CC(=O)OC[C@H]1O[C@H]2OC(C)CCCCCC/C=C\CCCCCCCC(=O)O[C@H]3[C@H](O)[C@@H](O)[C@H](O[C@@H]2[C@@H](O)[C@@H]1O)O[C@@H]3COC(C)=O (stereo partly drawn) [LSD, lactonic sophorolipid diacetate]	26.2%	40.3%	3.4%	inversely proportional to dose		
acidic sophorolipid [AS]					Dose dependant apoptosis could be observed	inversely proportional to dose
